target: T1, human Cot/Tpl2 kinase (Homo sapiens, UniProt P41279); assay: Tpl2/Cot kinase assay: GST-MEK1 phosphorylation detected by ELISA (DELFIA Eu); type: biochemical; conditions: 0.4 nM Tpl2, 35 nM GST-MEK1, 50 uM ATP, 1 h at 30° C.
T1 construct: human Cot/Tpl2 kinase construct encoding residues 30-398; 6His (N); made in house; host or cells: Sf9 insect cells, baculovirus system (BD Biosciences)
Outline: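 Substrate phosphorylation (GST-MEK1 Ser217/221) quantified by DELFIA europium ELISA, yielding IC50 values. Reaction: 1 h at 30° C, pH 7.2 MOPS buffer, 50 uM ATP, 35 nM GST-MEK1, 0.4 nM monomeric His-Tpl2 purified from Sf9 cells, compounds at 1% final DMSO; stopped with EDTA.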

T1 sequence (P41279 30-398): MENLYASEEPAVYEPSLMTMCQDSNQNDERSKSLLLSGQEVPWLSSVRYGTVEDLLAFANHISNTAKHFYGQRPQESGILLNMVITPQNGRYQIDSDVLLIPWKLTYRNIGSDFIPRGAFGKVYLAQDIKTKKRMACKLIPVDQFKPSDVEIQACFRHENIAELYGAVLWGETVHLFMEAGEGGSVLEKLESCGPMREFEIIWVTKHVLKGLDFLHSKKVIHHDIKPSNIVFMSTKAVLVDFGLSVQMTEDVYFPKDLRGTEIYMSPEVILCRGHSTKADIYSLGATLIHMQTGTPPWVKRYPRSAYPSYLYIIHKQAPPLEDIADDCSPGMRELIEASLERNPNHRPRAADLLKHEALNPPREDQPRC

SMILES | IC50
N#Cc1cnc2ccc(NCc3ccn[nH]3)cc2c1NC1CCCCCC1 [Example 251, 4-(cycloheptylamino)-6-[(1H-pyrazol-5-ylmethyl)amino]quinoline-3-carbonitrile] | 650 nM
N#Cc1cnc2c(Br)cc(NC(=O)Cc3cnc[nH]3)cc2c1Nc1ccc(F)c(Cl)c1 [Example 117, N-(8-bromo-4-(3-chloro-4-fluorophenylamino)-3-cyanoquinolin-6-yl)-2-(1H-imidazol-5-yl)acetamide] | > 40000 nM
N#Cc1cnc2cc(OCCBr)c(NCc3cnc[nH]3)cc2c1Nc1ccc(F)c(Cl)c1 [Example 166, 6-((1H-imidazol-5-yl)methylamino)-7-(2-bromoethoxy)-4-(3-chloro-4-fluorophenylamino)quinoline-3-carbonitrile] | > 40000 nM
CN1CCN(C(=O)Cn2ccnc2CNc2ccc3ncc(C#N)c(Nc4ccc(F)c(Cl)c4)c3c2)CC1 [Example 141, 4-(3-chloro-4-fluorophenylamino)-6-((1-(2-(4-methylpiperazin-1-yl)-2-oxoethyl)-1H-imidazol-2-yl)methylamino)quinoline-3-carbonitrile] | 120 nM
N#Cc1cnc2ccc(NCc3ncc[nH]3)cc2c1Nc1ccc(F)c(Cl)c1 [Example 13, 4-(3-Chloro-4-fluoro-phenylamino)-6-[(1H-imidazol-2-ylmethyl)-amino]-quinoline-3-carbonitrile] | 30 nM
N#Cc1cnc2c(Cl)cc(NCc3nnn4ccccc34)cc2c1Nc1ccc(F)c(Cl)c1 [Example 216, 6-([1,2,3]triazolo[1,5-a]pyridin-3-ylmethylamino)-8-chloro-4-(3-chloro-4-fluorophenylamino)quinoline-3-carbonitrile] | 5.9 nM
N#Cc1cnc2c(Cl)cc(NCc3cnc[nH]3)cc2c1Nc1ccc(F)c(Cl)c1 [Example 177, 6-((1H-imidazol-5-yl)methylamino)-8-chloro-4-(3-chloro-4-fluorophenylamino)quinoline-3-carbonitrile] | 10 nM
N#Cc1cnc2cc(N3CCOCC3)c(NCc3cnc[nH]3)cc2c1Nc1ccc(F)c(Cl)c1 [Example 160, 6-((1H-imidazol-5-yl)methylamino)-4-(3-chloro-4-fluorophenylamino)-7-morpholinoquinoline-3-carbonitrile] | > 40000 nM
N#Cc1cnc2c(Br)cc(NCc3cn(CCN4CCOCC4)nn3)cc2c1Nc1ccc(F)c(Cl)c1 [Example 297, 8-Bromo-4-(3-chloro-4-fluoro-phenylamino)-6-{[1-(2-morpholin-4-yl-ethyl)-1H-[1,2,3]triazol-4-ylmethyl]-amino}-quinoline-3-carbonitrile] | 29 nM
Cn1cc(CNc2cc(Cl)c3ncc(C#N)c(Nc4ccc(F)c(Cl)c4)c3c2)nn1 [Example 217, 8-chloro-4-[(3-chloro-4-fluorophenyl)amino]-6-{[(1-methyl-1H-1,2,3-triazol-4-yl)methyl]amino}quinoline-3-carbonitrile] | 7.2 nM
CS(=O)(=O)c1ccc(CNc2cc(Cl)c3ncc(C#N)c(Nc4ccc(F)c(Cl)c4)c3c2)cc1 [Example 184, 6-(4-(methylsulfonyl)benzylamino)-8-chloro-4-(3-chloro-4-fluorophenylamino)quinoline-3-carbonitrile] | 110 nM
CCc1nc(CNc2cc(Cl)c3ncc(C#N)c(Nc4ccc(F)c(Cl)c4)c3c2)c(C)n1C(=O)OC(C)(C)C [Example 194, tert-butyl 4-((8-chloro-4-(3-chloro-4-fluorophenylamino)-3-cyanoquinolin-6-ylamino)methyl)-2-ethyl-5-methyl-1H-imidazole-1-carboxylate] | 9700 nM
N#Cc1cnc2c(Br)cc(NCc3nc(-c4ccccc4)n[nH]3)cc2c1Nc1ccc(F)c(Cl)c1 [Example 290, 8-Bromo-4-(3-chloro-4-fluoro-phenylamino)-6-[(5-phenyl-2H-[1,2,4]triazol-3-ylmethyl)-amino]-quinoline-3-carbonitrile] | > 40000 nM
COc1cc(NCc2cccnc2)cc2c(Nc3ccc(F)c(Cl)c3)c(C#N)cnc12 [Example 28, 4-(3-Chloro-4-fluoro-phenylamino)-8-methoxy-6-[(pyridin-3-ylmethyl)-amino]-quinoline-3-carbonitrile] | 1100 nM

same assay, conditions: Table 2; Tpl2/Cot kinase, GST-MEK1 substrate, 50 uM ATP

SMILES | IC50
Fc1ccc(Nc2ncncc2-c2ccc(NCc3cnc[nH]3)cc2)cc1Cl [Example 527] | > 3000 nM
CN(C)c1cccc(Nc2c(C#N)cnc3ccc(NCCN4CCOCC4)cc23)c1 [Example 354] | > 10000 nM
N#Cc1cnc2c(F)cc(NCc3cncn3O)cc2c1Nc1ccc(F)c(Cl)c1 [Example 437] | 200 nM
CN(C)C(=O)c1cc([N+](=O)[O-])cc2c(Nc3ccc(F)c(Cl)c3)c(C#N)cnc12 [Example 395] | > 40000 nM
CN1CCCC1CCNC(=O)CNc1cc(Cl)c2ncc(C#N)c(Nc3ccc(F)c(Cl)c3)c2c1 (stereo not shown) [Example 612] | > 3000 nM
N#Cc1cnc2ccc(NCc3cccnc3)cc2c1Nc1cccc(Cl)c1 [Example 348] | 90 nM
N#Cc1cnc2c(Br)cc(NCc3cn(Cc4cccnc4)cn3)cc2c1Nc1ccc(F)c(Cl)c1 [Example 533] | 3.1 nM

same assay, conditions: Tpl2/Cot kinase, GST-MEK1 substrate, 50 uM ATP

SMILES | IC50
N#Cc1cnc2c(Br)cc(NCc3cc([C@@H]4CCCN4)n[nH]3)cc2c1Nc1ccc(F)c(Cl)c1 [Example 724] | 330 nM
N#Cc1cnc2c(Cl)cc(NCc3nc[nH]n3)cc2c1Nc1ccc(F)c(Cl)c1 [Example 666] | 100 nM
CN1CCCC1CCNC(=O)CNc1cc(Cl)c2ncc(C#N)c(Nc3ccc(F)c(Cl)c3)c2c1 (stereo not shown) [Example 781] | > 3000 nM
CN1CCN(C(=O)Cn2cc(CNc3cc(Cl)c4ncc(C#N)c(Nc5ccc(F)c(Cl)c5)c4c3)nn2)CC1 [Example 822] | 13 nM
N#Cc1cnc2c(Cl)cc(NCc3cn(CC(=O)N4CCCCCCC4)nn3)cc2c1Nc1ccc(F)c(Cl)c1 [Example 815] | 5.3 nM
CC(C)N1CCCC1Cn1cc(CNc2cc(Br)c3ncc(C#N)c(Nc4ccc(F)c(Cl)c4)c3c2)nn1 (stereo not shown) [Example 878] | 110 nM
CCN(Cc1cn(CC(=O)N(C)C)nn1)c1cc(Br)c2ncc(C#N)c(Nc3ccc(F)c(Cl)c3)c2c1 [Example 835] | 9.1 nM

same assay, conditions: Tpl2/Cot kinase, GST-MEK1 substrate, 50 uM ATP, 1 h at 30° C.; Table 2

SMILES | IC50
N#Cc1cnc2c(Cl)cc(NCc3cn(C4CCN(CC(F)F)CC4)nn3)cc2c1Nc1ccc(F)c(Cl)c1 [Example 1015] | 92 nM
CC(C)(C)OC(=O)N1CCC(n2cc(CNc3cc(Cl)c4ncc(C#N)c(NC5CCC5)c4c3)nn2)CC1 [Example 953] | 810 nM
N#Cc1cnc2c(Cl)cc(NC[C@H]3C[C@H](OCc4cccnc4)CO3)cc2c1Nc1ccc(F)c(Cl)c1 [Example 939] | > 3000 nM
N#Cc1cnc2c(Cl)cc(NCC3CCCN(C(=O)CNc4cccnc4)C3)cc2c1Nc1ccc(F)c(Cl)c1 (stereo not shown) [Example 923] | 560 nM
N#Cc1cnc2c(Cl)cc(NCC3CCCN(C(=O)CNCc4ccccn4)C3)cc2c1Nc1ccc(F)c(Cl)c1 (stereo not shown) [Example 922] | 1690 nM
CC(C)(C)OC(=O)N1CCN(CCn2cc(CNc3cc(Cl)c4ncc(C#N)c(Nc5ccc(F)c(Cl)c5)c4c3)nn2)CC1 [Example 957] | > 3000 nM
CN1CCCC1CCn1cc(CNc2cc(Cl)c3ncc(C#N)c(Nc4ccc(Oc5ccccc5)cc4)c3c2)nn1 (stereo not shown) [Example 990] | 830 nM
N#Cc1cnc2c(Cl)cc(NCc3cncc(C(O)(C(F)(F)F)C(F)(F)F)c3)cc2c1Nc1ccc(F)c(Cl)c1 [Example 1019] | > 3000 nM
CC(C)(C)CC(=O)N1CCN(CCn2cc(CNc3cc(Cl)c4ncc(C#N)c(Nc5ccc(F)c(Cl)c5)c4c3)nn2)CC1 [Example 960] | 130 nM
